Where two headings read alike, the source gives them in different places.
How the values were obtained:
[1] = biological target: T1, 5-LOX (Homo sapiens, UniProt P09917); test: 5-LOX product formation in activated PMNL; settings: for remaining activity at 3 µM: PMNL;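 as to all read-outs here: freshly isolated human PMNL in PBS pH 7.4 plus glucose, preincubated 10 min at 37 °C with compound, 5-LOX products (all-trans LTB4 isomers, 5-HETE) quantified by RP-HPLC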
T1 sequence (P09917 1-674): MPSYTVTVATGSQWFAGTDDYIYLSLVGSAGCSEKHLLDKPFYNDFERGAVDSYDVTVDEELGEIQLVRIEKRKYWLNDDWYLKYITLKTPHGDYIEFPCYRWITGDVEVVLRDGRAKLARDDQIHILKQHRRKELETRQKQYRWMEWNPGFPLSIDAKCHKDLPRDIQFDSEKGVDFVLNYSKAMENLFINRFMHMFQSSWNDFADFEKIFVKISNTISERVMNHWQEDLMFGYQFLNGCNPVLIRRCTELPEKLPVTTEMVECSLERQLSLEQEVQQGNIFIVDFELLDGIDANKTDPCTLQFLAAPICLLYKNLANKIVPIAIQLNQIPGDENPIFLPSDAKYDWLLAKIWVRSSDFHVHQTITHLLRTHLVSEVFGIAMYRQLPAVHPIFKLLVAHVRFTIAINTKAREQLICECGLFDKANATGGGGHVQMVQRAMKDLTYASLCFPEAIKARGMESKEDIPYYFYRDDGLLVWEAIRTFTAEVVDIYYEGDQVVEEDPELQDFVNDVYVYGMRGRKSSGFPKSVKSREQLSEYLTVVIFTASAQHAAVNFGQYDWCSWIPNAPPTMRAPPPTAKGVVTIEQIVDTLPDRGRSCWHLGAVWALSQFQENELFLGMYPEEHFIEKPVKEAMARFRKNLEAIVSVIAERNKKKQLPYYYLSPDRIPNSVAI

[2] = biological target: T1, 5-LOX; test: Cell-free 5-LOX activity (isolated human recombinant enzyme)
[3] = biological target: T1, 5-LOX; settings: supplementary csv; # published in ref Pein et al.4; read-out: IC50 (5-LOX PMNL); cited from earlier work
[4] = read-out: 5-LOX PMNL residual activity at 3 μM
[5] = read-out: 5-LOX PMNL IC50, 5-LOX product formation in activated PMNL, mean ± SEM
[6] = read-out: 5-LOX enzyme IC50, isolated human 5-LOX, cell-free, mean ± SEM
[7] = read-out: 5-LOX enzyme residual activity at 1 μM
[8] = read-out: 5-LOX PMNL residual activity at 3 µM (Table S1)
[9] = read-out: 5-LOX enzyme residual activity at 1 µM (Table S1)

Row | Structure (SMILES) | remaining activity at 3 µM [1, 4] [%] | IC50 [1, 5] [nM] | IC50 [2, 6] [nM] | remaining activity at 1 µM [2, 7] [%] | remaining activity at 3 µM [1, 8] [%] | remaining activity at 1 µM [2, 9] [%] | IC50 [3] [nM] | IC50 [1] [nM] | IC50 [2] [nM]
1 | COc1ccc(C2OCC(=CCC/C(C)=C/CC/C(C)=C/CC[C@]3(C)CCc4c(C)c(O)c(C=O)c(C)c4O3)CO2)cc1OC (stereo partly shown) [Compound 47] | 84 ± 8.5 | > 3000 | > 1000 | 58.7 ± 4.6 | – | – | – | – | –
2 | CC(C)=CCC/C(C)=C/CC/C(C)=C/CC[C@]1(C)CCc2c(C)c(O)c(C)c(C)c2O1 [Compound 6a] | – | – | – | – | 75.5 ± 4.5 | 16.9 ± 6.6 | > 3000 | – | –
3 | COCOc1cc(C)c2c(c1C=O)CC[C@@](C)(CCC[C@H](C)CCC[C@H](C)CCCC(C)C)O2 [Compound 4, (R)-6-(Methoxymethoxy)-2,8-dimethyl-2-((4R,8R)-4,8,12-trimethyltridecyl)chromane-5-carbaldehyde] | – | – | – | – | 91.9 ± 5.3 | 77.3 ± 17.2 | – | > 3000 | > 1000
4 | C/C(=C\CC/C(C)=C/CC[C@]1(C)CCc2c(CN3CCCC3)c(O)cc(C)c2O1)CCC=C(CO)CO [Compound 35, 2-((4E,8E)-11-((R)-6-Hydroxy-2,8-dimethyl-5-(pyrrolidin-1-ylmethyl)chroman-2-yl)-4,8-dimethylundeca-4,8-dien-1-ylidene)propane-1,3-diol] | 17.4 ± 2.4 | 1900 ± 110 | 170 ± 30 | 4.1 ± 0.2 | – | – | – | – | –
5 | C/C(=C\CC/C(C)=C/CC[C@]1(C)CCc2c(CN3CCN(C)CC3)c(O)c(CN3CCN(C)CC3)c(C)c2O1)CCC=C(CO)CO [Compound 40, 2-((4E,8E)-11-((R)-6-Hydroxy-2,8-dimethyl-5,7-bis((4-methylpiperazin-1-yl)methyl)chroman-2-yl)-4,8-dimethylundeca-4,8-dien-1-ylidene)propane-1,3-diol] | 77.8 ± 7.6 | > 3000 | > 1000 | 50.3 ± 4.1 | – | – | – | – | –
6 | Cc1cc(O)cc2c1O[C@](C)(CCC[C@H](C)CCC[C@H](C)CCCC(C)C)CC2 [Compound 1d, δ-tocopherol] | – | – | – | – | 107 ± 3.2 | 43.3 ± 7.2 | > 3000 | – | 600 ± 250
7 | C/C(=C\CC/C(C)=C/CC[C@]1(C)CCc2c(CN(C)C)c(O)cc(C)c2O1)CC/C=C(\C)C(=O)O [Compound 23] | 33.1 ± 8 | 2060 ± 450 | 70 ± 20 | 7.9 ± 3.6 | – | – | – | – | –
8 | COC(=O)/C(C)=C/CC/C(C)=C/CC/C(C)=C/CC[C@]1(C)CCc2c(c(C)cc(O)c2C(=O)OC)O1 [Compound 25, (R)-Methyl-6-hydroxy-2-((3E,7E,11E)-13-methoxy-4,8,12-trimethyl-13-oxotrideca-3,7,11-trien-1-yl)-2,8-dimethylchroman-5-carboxylate] | 79.9 ± 3.6 | > 3000 | > 1000 | 54.5 ± 8.4 | – | – | – | – | –
9 | Cc1cc(O)cc2c1O[C@](C)(CCCC(C)CCCC(C)CCCC(CO)CO)CC2 (stereo partly drawn) [Compound 26, 2-(11-((R)-6-Hydroxy-2,8-dimethylchroman-2-yl)-4,8-dimethylundecyl)propane-1,3-diol] | 81.3 ± 0.7 | > 3000 | > 1000 | 53.1 ± 7.4 | – | – | – | – | –
10 | C/C(=C\CC/C(C)=C/CC[C@]1(C)CCc2c(CN(C)C)c(O)cc(C)c2O1)CCC=C(CO)CO [Compound 36, 2-((4E,8E)-11-((R)-5-((Dimethylamino)methyl)-6-hydroxy-2,8-dimethylchroman-2-yl)-4,8-dimethylundeca-4,8-dien-1-ylidene)propane-1,3-diol] | 63.9 ± 14.4 | > 3000 | 110 ± 20 | 3.7 ± 0.4 | – | – | – | – | –
11 | COc1ccc(C2OCC(=CCC/C(C)=C/CC/C(C)=C/CC[C@]3(C)CCc4c(C)c(O)c(CO)c(C)c4O3)CO2)cc1OC (stereo partly drawn) [Compound 46, (2R)-2-((3E,7E)-11-(2-(3,4-Dimethoxyphenyl)-1,3-dioxan-5-ylidene)-4,8-dimethylundeca-3,7-dien-1-yl)-7-(hydroxymethyl)-2,5,8-trimethylchroman-6-ol] | 22.2 ± 8.8 | – | – | 0.7 ± 0.1 | – | – | – | 390 ± 180 | 90
12 | C/C(=C\CC/C(C)=C/CC[C@]1(C)CCc2cc(O)c(C)c(C)c2O1)CC/C=C(\C)C(=O)O [Compound 13c] | 1.6 ± 1.6 | – | – | 4.1 ± 3.6 | – | – | – | – | –
13 | C/C(=C\CC/C(C)=C/CC[C@]1(C)CCc2c(CN3CCN(C)CC3)c(O)cc(C)c2O1)CCC=C(CO)CO [Compound 39, 2-((4E,8E)-11-((R)-6-Hydroxy-2,8-dimethyl-5-((4-methylpiperazin-1-yl)methyl)chroman-2-yl)-4,8-dimethylundeca-4,8-dien-1-ylidene)propane-1,3-diol] | 21.6 ± 6.8 | 2030 ± 160 | 310 ± 70 | 16 ± 1.9 | – | – | – | – | –

— paper PMC8365602 (Journal of Medicinal Chemistry, 2021)
